Target: T1, PIKfyve (Homo sapiens, UniProt Q9Y2I7)
T1 construct: endogenous in cells; host or cells: VCaP
Test: Degradation of PIKfyve proteins in VCaP tumor cells (24 h, Western blot)
Assay type: cell-based
Conditions: 37° C., compared with DMSO control, WB, read-out: DC50 (concentration that achieves 50% degradation activity)
Protocol: Method: 200 μL of cells at a density of 5×10^6 cells/ml were inoculated into a 6-well plate, and then different concentrations of drugs were added. The cells were treated at 37° C. for 24 h. The […] was collected and washed with PBS twice. Then, 100-200 μL of 1×SDS lysate was added, and the cell lysate was collected into a centrifuge tube. The cells were disrupted ultrasonically for 10-20 sec, and boiled for 10 min. Protein samples were subjected to SDS-PAGE electrophoresis at a voltage of 90 V, transferred to PVDF membranes at 110 V, blocked with 5% BSA for 4 h, incubated with primary antibodies (PIKfyve, GAPDH) at 4° C. overnight, and incubated with secondary antibodies (anti-Rabbit IgG or anti-Mouse IgG) at room temperature. The membranes were washed with TBST buffer, developed with an ECL developing solution, and then imaged to obtain protein band signals, with single-concentration WB results as shown in FIG. 1. Compared with the DMSO control group, the concentration that achieves 50% degradation activity is defined as DC50.

T1 sequence (Q9Y2I7 whole entry): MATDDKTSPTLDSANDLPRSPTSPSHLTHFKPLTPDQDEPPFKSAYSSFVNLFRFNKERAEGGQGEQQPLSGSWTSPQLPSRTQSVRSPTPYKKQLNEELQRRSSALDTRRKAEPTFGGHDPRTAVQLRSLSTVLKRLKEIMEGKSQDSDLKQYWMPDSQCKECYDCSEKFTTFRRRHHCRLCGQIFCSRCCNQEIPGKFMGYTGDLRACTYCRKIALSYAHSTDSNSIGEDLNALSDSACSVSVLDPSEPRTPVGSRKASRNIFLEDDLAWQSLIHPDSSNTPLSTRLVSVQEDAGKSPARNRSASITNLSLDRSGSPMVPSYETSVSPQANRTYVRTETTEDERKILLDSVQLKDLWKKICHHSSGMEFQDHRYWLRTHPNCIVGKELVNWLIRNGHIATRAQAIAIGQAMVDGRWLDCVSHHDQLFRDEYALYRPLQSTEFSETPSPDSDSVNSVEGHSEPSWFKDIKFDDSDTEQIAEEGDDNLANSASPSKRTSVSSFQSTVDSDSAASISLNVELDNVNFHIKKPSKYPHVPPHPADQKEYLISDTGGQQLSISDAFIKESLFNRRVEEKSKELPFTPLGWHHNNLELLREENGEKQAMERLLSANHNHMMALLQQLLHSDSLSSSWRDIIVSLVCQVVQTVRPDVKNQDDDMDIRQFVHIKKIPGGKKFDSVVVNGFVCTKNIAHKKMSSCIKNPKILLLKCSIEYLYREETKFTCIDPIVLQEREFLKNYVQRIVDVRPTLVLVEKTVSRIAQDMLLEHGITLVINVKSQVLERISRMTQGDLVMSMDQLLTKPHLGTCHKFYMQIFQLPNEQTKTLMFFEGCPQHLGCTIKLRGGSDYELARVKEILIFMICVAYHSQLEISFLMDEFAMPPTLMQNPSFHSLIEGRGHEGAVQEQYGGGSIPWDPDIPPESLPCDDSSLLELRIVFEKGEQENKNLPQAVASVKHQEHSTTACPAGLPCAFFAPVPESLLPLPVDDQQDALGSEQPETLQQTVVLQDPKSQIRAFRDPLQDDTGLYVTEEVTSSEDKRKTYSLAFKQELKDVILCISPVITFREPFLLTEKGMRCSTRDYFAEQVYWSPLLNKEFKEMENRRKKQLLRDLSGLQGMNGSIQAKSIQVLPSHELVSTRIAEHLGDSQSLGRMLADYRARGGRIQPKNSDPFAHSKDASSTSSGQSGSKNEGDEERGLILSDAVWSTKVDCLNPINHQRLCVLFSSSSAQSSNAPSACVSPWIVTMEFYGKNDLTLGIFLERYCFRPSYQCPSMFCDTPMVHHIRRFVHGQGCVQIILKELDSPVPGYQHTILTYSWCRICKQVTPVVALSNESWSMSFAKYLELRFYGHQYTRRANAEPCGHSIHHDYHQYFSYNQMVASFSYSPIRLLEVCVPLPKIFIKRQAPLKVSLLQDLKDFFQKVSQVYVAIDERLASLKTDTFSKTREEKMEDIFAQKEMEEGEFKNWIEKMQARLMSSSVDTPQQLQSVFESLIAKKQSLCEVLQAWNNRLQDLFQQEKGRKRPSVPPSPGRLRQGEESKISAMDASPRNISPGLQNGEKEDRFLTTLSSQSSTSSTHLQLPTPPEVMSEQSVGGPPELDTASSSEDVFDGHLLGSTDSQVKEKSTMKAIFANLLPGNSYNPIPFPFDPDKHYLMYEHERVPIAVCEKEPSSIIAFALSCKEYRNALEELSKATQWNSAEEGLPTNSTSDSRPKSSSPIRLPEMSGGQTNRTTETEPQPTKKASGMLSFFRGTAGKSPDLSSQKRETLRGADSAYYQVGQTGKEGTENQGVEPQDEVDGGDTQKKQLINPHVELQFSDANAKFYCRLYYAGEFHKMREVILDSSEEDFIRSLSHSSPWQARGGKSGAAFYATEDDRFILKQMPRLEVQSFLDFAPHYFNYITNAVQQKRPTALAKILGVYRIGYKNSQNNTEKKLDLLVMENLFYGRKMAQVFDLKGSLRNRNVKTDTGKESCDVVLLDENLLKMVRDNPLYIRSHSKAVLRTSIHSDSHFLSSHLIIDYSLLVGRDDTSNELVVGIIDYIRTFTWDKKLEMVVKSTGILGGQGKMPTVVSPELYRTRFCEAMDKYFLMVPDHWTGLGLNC

## Cc1cccc(/C=N/Nc2cc(N3CCOCC3)nc(OCCc3ccc(NC(=O)COc4cccc5c4C(=O)N(C4CCC(=O)NC4=O)C5=O)cc3)n2)c1 (centres unmarked) [Example 1, (E)-2-((2-(2,6-dioxopiperidin-3-yl)-1,3-dioxoisoindolin-4-yl)oxy)-N-(4-(2-((4-(2-(3-methylbenzylidene)hydrazino)-6-morpholinopyrimidin-2-yl)oxy)ethyl)phenyl)acetamide]
  DC50: 100 to 10000 nM

## Cc1cccc(/C=N/Nc2cc(N3CCOCC3)nc(OCCc3ccc(NC(=O)CCCCCOc4ccc5c(c4)C(=O)N(C4CCC(=O)NC4=O)C5=O)cc3)n2)c1 (centres unmarked) [Example 8, (E)-6-((2-(2,6-dioxopiperidin-3-yl)-1,3-dioxoisoindolin-5-yl)oxy)-N-(4-(2-((4-(2-(3-methylbenzylidene)hydrazino)-6-morpholinopyrimidin-2-yl)oxy)ethyl)phenyl)hexanamide]
  DC50: 100 to 10000 nM

## Cc1cccc(/C=N/Nc2cc(N3CCOCC3)nc(OCCc3ccc(NC(=O)CCCCCNc4cccc5c4C(=O)N(C4CCC(=O)NC4=O)C5=O)cc3)n2)c1 (centres unmarked) [Example 13, (E)-6-((2-(2,6-dioxopiperidin-3-yl)-1,3-dioxoisoindolin-4-yl)amino)-N-(4-(2-((4-(2-(3-methylbenzylidene)hydrazino)-6-morpholinopyrimidin-2-yl)oxy)ethyl)phenyl)hexanamide]
  DC50: 100 to 10000 nM

## Cc1cccc(/C=N/Nc2cc(N3CCOCC3)nc(OCCc3ccc(NC(=O)CCCNc4ccc5c(c4)C(=O)N(C4CCC(=O)NC4=O)C5=O)cc3)n2)c1 (centres unmarked) [Example 16, (E)-4-((2-(2,6-dioxopiperidin-3-yl)-1,3-dioxoisoindolin-5-yl)amino)-N-(4-(2-((4-(2-(3-methylbenzylidene)hydrazino)-6-morpholinopyrimidin-2-yl)oxy)ethyl)phenyl) butanamide]
  DC50: 100 to 10000 nM

## Cc1cccc(/C=N/Nc2cc(N3CCOCC3)nc(OCCc3ccc(NC(=O)CCCCCNc4ccc5c(c4)C(=O)N(C4CCC(=O)NC4=O)C5=O)cc3)n2)c1 (centres unmarked) [Example 17, (E)-6-((2-(2,6-dioxopiperidin-3-yl)-1,3-dioxoisoindolin-5-yl)amino)-N-(4-(2-((4-(2-(3-methylbenzylidene)hydrazino)-6-morpholinopyrimidin-2-yl)oxy)ethyl)phenyl) hexanamide]
  DC50: 100 to 10000 nM

## Cc1cccc(/C=N/Nc2cc(N3CCOCC3)nc(OCCc3ccc(NC(=O)CCCCCCCNc4ccc5c(c4)C(=O)N(C4CCC(=O)NC4=O)C5=O)cc3)n2)c1 (centres unmarked) [Example 18, (E)-8-((2-(2,6-dioxopiperidin-3-yl)-1,3-dioxoisoindolin-5-yl)amino)-N-(4-(2-((4-(2-(3-methylbenzylidene)hydrazino)-6-morpholinopyrimidin-2-yl)oxy)ethyl)phenyl) octanamide]
  DC50: 100 to 10000 nM

## Cc1cccc(/C=N/Nc2cc(N3CCOCC3)nc(OCCc3ccc(NC(=O)CCCCCCCCCNc4ccc5c(c4)C(=O)N(C4CCC(=O)NC4=O)C5=O)cc3)n2)c1 (centres unmarked) [Example 19, (E)-10-((2-(2,6-dioxopiperidin-3-yl)-1,3-dioxoisoindolin-5-yl)amino)-N-(4-(2-((4-(2-(3-methylbenzylidene)hydrazino)-6-morpholinopyrimidin-2-yl)oxy)ethyl)phenyl) decanamide]
  DC50: 100 to 10000 nM

## Cc1cccc(/C=N/Nc2cc(N3CCOCC3)nc(OCCc3ccc(NC(=O)CCCCCCC(=O)Nc4cccc5c4CN(C4CCC(=O)NC4=O)C5=O)cc3)n2)c1 (centres unmarked) [Example 21, (E)-N^1-(2-(2,6-dioxopiperidin-3-yl)-1-oxoisoindolin-4-yl)-N^8-(4-(2-((4-(2-(3-methylbenzylidene)hydrazino)-6-morpholinopyrimidin-2-yl)oxy)ethyl)phenyl)octanediamide]
  DC50: 1 to 100 nM

## Cc1cccc(/C=N/Nc2cc(N3CCOCC3)nc(OCCc3ccc(NC(=O)CCCCCCCCC(=O)Nc4cccc5c4CN(C4CCC(=O)NC4=O)C5=O)cc3)n2)c1 (centres unmarked) [Example 22, (E)-N^1-(2-(2,6-dioxopiperidin-3-yl)-1-oxoisoindolin-4-yl)-N^10-(4-(2-((4-(2-(3-methylbenzylidene)hydrazino)-6-morpholinopyrimidin-2-yl)oxy)ethyl)phenyl)decanediamide]
  DC50: 100 to 10000 nM

## Cc1cccc(/C=N/Nc2cc(N3CCOCC3)nc(OCCc3ccc(NC(=O)CCCCCCCCCCC(=O)Nc4cccc5c4CN(C4CCC(=O)NC4=O)C5=O)cc3)n2)c1 (centres unmarked) [Example 23, (E)-N^1-(2-(2,6-dioxopiperidin-3-yl)-1-oxoisoindolin-4-yl)-N^12-(4-(2-((4-(2-(3-methylbenzylidene)hydrazino)-6-morpholinopyrimidin-2-yl)oxy)ethyl)phenyl)dodecanediamide]
  DC50: 100 to 10000 nM

## Cc1cccc(/C=N/Nc2cc(N3CCOCC3)nc(OCCc3ccc(NC(=O)CCCCC(=O)Nc4ccc5c(c4)CN(C4CCC(=O)NC4=O)C5=O)cc3)n2)c1 (centres unmarked) [Example 25, (E)-N^1-(2-(2,6-dioxopiperidin-3-yl)-1-oxoisoindolin-5-yl)-N^6-(4-(2-((4-(2-(3-methylbenzylidene)hydrazino)-6-morpholinopyrimidin-2-yl)oxy)ethyl)phenyl)adipamide]
  DC50: 100 to 10000 nM

## Cc1cccc(/C=N/Nc2cc(N3CCOCC3)nc(OCCc3ccc(NC(=O)CCCCCCC(=O)Nc4ccc5c(c4)CN(C4CCC(=O)NC4=O)C5=O)cc3)n2)c1 (centres unmarked) [Example 26, (E)-N^1-(2-(2,6-dioxopiperidin-3-yl)-1-oxoisoindolin-5-yl)-N^8-(4-(2-((4-(2-(3-methylbenzylidene)hydrazino)-6-morpholinopyrimidin-2-yl)oxy)ethyl)phenyl)octanediamide]
  DC50: 100 to 10000 nM

## Cc1cccc(/C=N/Nc2cc(N3CCOCC3)nc(OCCc3ccc(NC(=O)CCCCCCCCC(=O)Nc4ccc5c(c4)CN(C4CCC(=O)NC4=O)C5=O)cc3)n2)c1 (centres unmarked) [Example 27, (E)-N^1-(2-(2,6-dioxopiperidin-3-yl)-1-oxoisoindolin-5-yl)-N^10-(4-(2-((4-(2-(3-methylbenzylidene)hydrazino)-6-morpholinopyrimidin-2-yl)oxy)ethyl)phenyl)decanediamide]
  DC50: 1 to 100 nM

## Cc1cccc(/C=N/Nc2cc(N3CCOCC3)nc(OCCc3ccc(NC(=O)CCC(=O)Nc4ccc5c(c4)C(=O)N(C4CCC(=O)NC4=O)C5)cc3)n2)c1 (centres unmarked) [Example 28, (E)-N^1-(2-(2,6-dioxopiperidin-3-yl)-3-oxoisoindolin-5-yl)-N^4-(4-(2-((4-(2-(3-methylbenzylidene)hydrazino)-6-morpholinopyrimidin-2-yl)oxy)ethyl)phenyl)succinimide]
  DC50: 1 to 100 nM

## Cc1cccc(/C=N/Nc2cc(N3CCOCC3)nc(OCCc3ccc(NC(=O)CCCCC(=O)Nc4ccc5c(c4)C(=O)N(C4CCC(=O)NC4=O)C5)cc3)n2)c1 (centres unmarked) [Example 29, (E)-N^1-(2-(2,6-dioxopiperidin-3-yl)-3-oxoisoindolin-5-yl)-N^6-(4-(2-((4-(2-(3-methylbenzylidene)hydrazino)-6-morpholinopyrimidin-2-yl)oxy)ethyl)phenyl)adipamide]
  DC50: 1 to 100 nM

## Cc1cccc(/C=N/Nc2cc(N3CCOCC3)nc(OCCc3ccc(NC(=O)CCCCCCC(=O)Nc4ccc5c(c4)C(=O)N(C4CCC(=O)NC4=O)C5)cc3)n2)c1 (centres unmarked) [Example 30, (E)-N^1-(2-(2,6-dioxopiperidin-3-yl)-3-oxoisoindol-5-yl)-N^8-(4-(2-((4-(2-(3-methylbenzylidene)hydrazino)-6-morpholinopyrimidin-2-yl)oxy)ethyl)phenyl)octanediamide]
  DC50: 1 to 100 nM

## Cc1cccc(/C=N/Nc2cc(N3CCOCC3)nc(OCCc3ccc(NC(=O)CCCCCCCCC(=O)Nc4ccc5c(c4)C(=O)N(C4CCC(=O)NC4=O)C5)cc3)n2)c1 (centres unmarked) [Example 31, (E)-N^1-(2-(2,6-dioxopiperidin-3-yl)-3-oxoisoindol-5-yl)-N^10-(4-(2-((4-(2-(3-methylbenzylidene)hydrazino)-6-morpholinopyrimidin-2-yl)oxy)ethyl)phenyl)decanediamide]
  DC50: 100 to 10000 nM

## Cc1cccc(/C=N/Nc2cc(N3CCOCC3)nc(OCCc3ccc(NC(=O)CCC(=O)Nc4cccc5c4C(=O)N(C4CCC(=O)NC4=O)C5)cc3)n2)c1 (centres unmarked) [Example 32, (E)-N^1-(2-(2,6-dioxopiperidin-3-yl)-3-oxoisoindolin-4-yl)-N^4-(4-(2-((4-(2-(3-methylbenzylidene)hydrazino)-6-morpholinopyrimidin-2-yl)oxy)ethyl)phenyl)succinimide]
  DC50: 1 to 100 nM

## Cc1cccc(/C=N/Nc2cc(N3CCOCC3)nc(OCCc3ccc(NC(=O)CCCCCCCCC(=O)Nc4cccc5c4C(=O)N(C4CCC(=O)NC4=O)C5)cc3)n2)c1 (centres unmarked) [Example 35, (E)-N^1-(2-(2,6-dioxopiperidin-3-yl)-3-oxoisoindolin-4-yl)-N^10-(4-(2-((4-(2-(3-methylbenzylidene)hydrazino)-6-morpholinopyrimidin-2-yl)oxy)ethyl)phenyl)decanediamide]
  DC50: 100 to 10000 nM

## Cc1cccc(/C=N/Nc2cc(N3CCOCC3)nc(OCCc3ccc(NC(=O)CCCCCCCCCCC(=O)Nc4cccc5c4C(=O)N(C4CCC(=O)NC4=O)C5)cc3)n2)c1 (centres unmarked) [Example 36, (E)-N^1-(2-(2,6-dioxopiperidin-3-yl)-3-oxoisoindolin-4-yl)-N^12-(4-(2-((4-(2-(3-methylbenzylidene)hydrazino)-6-morpholinopyrimidin-2-yl)oxy)ethyl)phenyl)dodecanediamide]
  DC50: 100 to 10000 nM

Reference: patent publication US20260317299A1, “PIKFYVE PROTEIN KINASE DEGRADATION AGENT AND USE THEREOF” (Shanghai Institute of Organic Chemistry, Chinese Academy of …, priority 2023, published 2026)
